We go through 27 molecules from patent EP4707284A1, “HETEROCYCLIC COMPOUND AND USE THEREOF” (Otsuka Pharmaceutical Co., Ltd., priority 2023, dated 2024).

The first data set is classed as physicochemical. As to conditions: Tris-hydrochloric acid buffer (pH 7.5) 50 mmol/L, magnesium chloride 5 mmol/L, evaluation compound 1 µmol/L, 37°C, 60 minutes, average of duplicate. A digest of the protocol:
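Conversion of compounds to brexpiprazole measured in buffer at 37°C, in duplicate: compound added after 3 min pre-incubation of reaction solution, and reaction stopped at 0 or 60 min with acetonitrile/isopropanol (4:1) containing internal standards. Quantified against calibration samples at 0.01, 0.1 and 1 µmol/L.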
As for `C[C@H](NP(=O)([O-])OC[N+]1(CCCCOc2ccc3ccc(=O)[nH]c3c2)CCN(c2cccc3sccc23)CC1)C(N)=O` [EX 158], the “Concentration of brexpiprazole formed” value stood at 0 nM and the “Concentration of evaluation compound decreased” value stood at 70 nM.

Regarding `CCC(=O)OC[N+]1(CCCCOc2ccc3ccc(=O)[nH]c3c2)CCN(c2cccc3sccc23)CC1.[I-]` [REX 5, 4-(Benzo[b]thiophen-4-yl)-1-(4-((2-oxo-1,2-dihydroquinolin-7-yl)oxy)butyl)-1-((propionyloxy)methyl)piperazin-1-ium iodide, reference compound], the “Concentration of brexpiprazole formed” value was 260 nM and the “Concentration of evaluation compound decreased” value was 200 nM.

With `CC(C)(C)C(=O)OCOP(=O)([O-])OC[N+]1(CCCCOc2ccc3ccc(=O)[nH]c3c2)CCN(c2cccc3sccc23)CC1` [EX 25], the “Concentration of brexpiprazole formed” value came out at 0 nM and the “Concentration of evaluation compound decreased” value is -10 nM.

Turning to `CN1CCN(CCOP(=O)([O-])OC[N+]2(CCCCOc3ccc4ccc(=O)[nH]c4c3)CCN(c3cccc4sccc34)CC2)CC1` [EX 117], the “Concentration of brexpiprazole formed” value came out at 0 nM and the “Concentration of evaluation compound decreased” value is 50 nM.

As to `CCC(CC)COC(=O)[C@@H](C)OP(=O)([O-])OC[N+]1(CCCCOc2ccc3ccc(=O)[nH]c3c2)CCN(c2cccc3sccc23)CC1` [EX 108], the “Concentration of brexpiprazole formed” value was found to be 0 nM and the “Concentration of evaluation compound decreased” value was 80 nM.

`CCOC(=O)CCOC(=O)OCOP(=O)([O-])OC[N+]1(CCCCOc2ccc3ccc(=O)[nH]c3c2)CCN(c2cccc3sccc23)CC1` [EX 143]: the “Concentration of brexpiprazole formed” value came to 0 nM and the “Concentration of evaluation compound decreased” value stood at 50 nM.

For the molecule `Cc1cccc(C(=O)OCCCCCCOP(=O)([O-])OC[N+]2(CCCCOc3ccc4ccc(=O)[nH]c4c3)CCN(c3cccc4sccc34)CC2)n1` [EX 59], the “Concentration of brexpiprazole formed” value was 0 nM and the “Concentration of evaluation compound decreased” value stood at 50 nM.

Regarding `CC(C)(CC(=O)O)CC(=O)OCOP(=O)([O-])OC[N+]1(CCCCOc2ccc3ccc(=O)[nH]c3c2)CCN(c2cccc3sccc23)CC1` [EX 71], the “Concentration of brexpiprazole formed” value amounted to 0 nM and the “Concentration of evaluation compound decreased” value amounted to 100 nM.

For the molecule `CCOCCOCCOCCOC(=O)OCOP(=O)([O-])OC[N+]1(CCCCOc2ccc3ccc(=O)[nH]c3c2)CCN(c2cccc3sccc23)CC1` [EX 136], the “Concentration of brexpiprazole formed” value amounted to 0 nM and the “Concentration of evaluation compound decreased” value came out at 0 nM.

As to `CC(=O)Oc1ccccc1C(=O)OCOP(=O)([O-])OC[N+]1(CCCCOc2ccc3ccc(=O)[nH]c3c2)CCN(c2cccc3sccc23)CC1` [EX 80], the “Concentration of brexpiprazole formed” value came to 0 nM and the “Concentration of evaluation compound decreased” value came out at 170 nM.

In the case of `CCOC(=O)C[C@@H](OP(=O)([O-])OC[N+]1(CCCCOc2ccc3ccc(=O)[nH]c3c2)CCN(c2cccc3sccc23)CC1)C(=O)OCC` [EX 111], the “Concentration of brexpiprazole formed” value amounted to 0 nM and the “Concentration of evaluation compound decreased” value came to 20 nM.

For the molecule `O=c1ccc2ccc(OCCCC[N+]3(COP(=O)([O-])OCCN4CCCCC4)CCN(c4cccc5sccc45)CC3)cc2[nH]1` [EX 118], the “Concentration of brexpiprazole formed” value was determined as 0 nM and the “Concentration of evaluation compound decreased” value was 60 nM.

For `O=C(CCO)OCOP(=O)([O-])OC[N+]1(CCCCOc2ccc3ccc(=O)[nH]c3c2)CCN(c2cccc3sccc23)CC1` [EX 125], the “Concentration of brexpiprazole formed” value is 0 nM and the “Concentration of evaluation compound decreased” value came to 130 nM.

In the case of `O=c1ccc2ccc(OCCCC[N+]3(COP(=O)([O-])OC/C=C/CO)CCN(c4cccc5sccc45)CC3)cc2[nH]1` [EX 42], the “Concentration of brexpiprazole formed” value was 0 nM and the “Concentration of evaluation compound decreased” value was found to be 30 nM.

`COCCCCOP(=O)([O-])OC[N+]1(CCCCOc2ccc3ccc(=O)[nH]c3c2)CCN(c2cccc3sccc23)CC1` [EX 50]: the “Concentration of brexpiprazole formed” value came to 0 nM and the “Concentration of evaluation compound decreased” value was 10 nM.

For the molecule `CCOC(=O)C(CC)OP(=O)([O-])OC[N+]1(CCCCOc2ccc3ccc(=O)[nH]c3c2)CCN(c2cccc3sccc23)CC1` (stereo not shown) [EX 110], the “Concentration of brexpiprazole formed” value is 0 nM and the “Concentration of evaluation compound decreased” value stood at 70 nM.

With `O=c1ccc2ccc(OCCCC[N+]3(COP(=O)([O-])OCCCCCO)CCN(c4cccc5sccc45)CC3)cc2[nH]1` [EX 92], the “Concentration of brexpiprazole formed” value came out at 0 nM and the “Concentration of evaluation compound decreased” value was 110 nM.

For the molecule `CCCCCCCC(=O)OC(C)OP(=O)([O-])OC[N+]1(CCCCOc2ccc3ccc(=O)[nH]c3c2)CCN(c2cccc3sccc23)CC1` (stereo not shown) [EX 26], the “Concentration of brexpiprazole formed” value was found to be 0 nM and the “Concentration of evaluation compound decreased” value amounted to 50 nM.

For `CCOC(=O)[C@@H](C)OP(=O)([O-])OC[N+]1(CCCCOc2ccc3ccc(=O)[nH]c3c2)CCN(c2cccc3sccc23)CC1` [EX 103], the “Concentration of brexpiprazole formed” value amounted to 0 nM and the “Concentration of evaluation compound decreased” value is -10 nM.

In the case of `O=c1ccc2ccc(OCCCC[N+]3(COP(=O)([O-])OCCCCCCO)CCN(c4cccc5sccc45)CC3)cc2[nH]1` [EX 44], the “Concentration of brexpiprazole formed” value was found to be 0 nM and the “Concentration of evaluation compound decreased” value is -50 nM.

`O=C(OCOP(=O)([O-])OC[N+]1(CCCCOc2ccc3ccc(=O)[nH]c3c2)CCN(c2cccc3sccc23)CC1)OC1CCOCC1` [EX 141]: the “Concentration of brexpiprazole formed” value was 0 nM and the “Concentration of evaluation compound decreased” value amounted to 20 nM.

With `C[C@H](NP(=O)([O-])OC[N+]1(CCCCOc2ccc3ccc(=O)[nH]c3c2)CCN(c2cccc3sccc23)CC1)C(=O)OC(C)(C)C` [EX 157], the “Concentration of brexpiprazole formed” value amounted to 0 nM and the “Concentration of evaluation compound decreased” value came to 80 nM.

On to `CC(C)NC(=O)CCCCCCCCC(=O)OCOP(=O)([O-])OC[N+]1(CCCCOc2ccc3ccc(=O)[nH]c3c2)CCN(c2cccc3sccc23)CC1` [EX 76], for which the “Concentration of brexpiprazole formed” value stood at 0 nM and the “Concentration of evaluation compound decreased” value is 0 nM.

Take `CC(C)C(=O)OCOP(=O)([O-])OC[N+]1(CCCCOc2ccc3ccc(=O)[nH]c3c2)CCN(c2cccc3sccc23)CC1` [EX 24]: the “Concentration of brexpiprazole formed” value stood at 0 nM and the “Concentration of evaluation compound decreased” value is -110 nM.

`O=C(CCCCCO)OCOP(=O)([O-])OC[N+]1(CCCCOc2ccc3ccc(=O)[nH]c3c2)CCN(c2cccc3sccc23)CC1` [EX 126]: the “Concentration of brexpiprazole formed” value amounted to 0 nM and the “Concentration of evaluation compound decreased” value turned out to be 160 nM.

With `COCCCOC(=O)OCOP(=O)([O-])OC[N+]1(CCCCOc2ccc3ccc(=O)[nH]c3c2)CCN(c2cccc3sccc23)CC1` [EX 139], the “Concentration of brexpiprazole formed” value stood at 0 nM and the “Concentration of evaluation compound decreased” value turned out to be 120 nM.

Consider `COCCCOP(=O)([O-])OC[N+]1(CCCCOc2ccc3ccc(=O)[nH]c3c2)CCN(c2cccc3sccc23)CC1` [EX 49], for which the “Concentration of brexpiprazole formed” value came to 0 nM and the “Concentration of evaluation compound decreased” value amounted to 50 nM.

The data set is the same for the next values; noted with them: Tris-hydrochloric acid buffer (pH 7.5), 37°C, 60 minutes.
In the case of `CCC(=O)OC[N+]1(CCCCOc2ccc3ccc(=O)[nH]c3c2)CCN(c2cccc3sccc23)CC1.[I-]` [REX 5, 4-(Benzo[b]thiophen-4-yl)-1-(4-((2-oxo-1,2-dihydroquinolin-7-yl)oxy)butyl)-1-((propionyloxy)methyl)piperazin-1-ium iodide, reference compound], the “stability in the buffer / conversion to brexpiprazole (in words)” value is recorded as “clearly degraded to brexpiprazole”.
